Results published in patent US10576125B2, “Methods for enhancing synaptogenesis and neuritogenesis” (HOUGH EAR INSTITUTE, priority 2016, dated 2020).

Key:
[1] = test system: murine spiral ganglion (SG) tissue explants; experiment: Neuritogenesis in murine spiral ganglion explants; format: cell-based, mouse; conditions: for neurite outgrowth induced by exogenous neurotrophic factor: at 10 μM (so in the source) relative to untreated controls, FIG. 24B, FIG. 26B
PC12 cell line [2] = experiment: NGF-induced neuritogenesis in PC12 cells; format: cell-based
Description: This NGF-induced neuritogenic response was apparently saturable at concentrations at and above 10 ng/mL in this context.
FIG. 4 depicts the percentage of PC12 cells with significant neurite outgrowth. The pattern observed here is similar to that observed for treatment-induced increases in average neurite length. Taken together, these evaluations support the interpretation that HPN-07 acts in concert with NGF to promote both de novo neurite outgrowth and changes in the stability or assembly kinetics of neurites in such a manner as to support increases in mean neurite length, both of which are desirable features for re-innervation of IHCs.

[3] = test system: IHC ribbon synapses in murine SGN-IHC co-culture; experiment: Kainic acid excitotoxic trauma in SGN-IHC co-culture; format: cell-based; conditions: for KA-induced shift of pre-synaptic densities from typical to apical distributions: quantitative evaluation
Description: The previous findings were applied to a murine SGN-IHC co-culture model of excitotoxic trauma. In IHCs of undamaged co-cultures of auditory sensory epithelia (organs of Corti, OC) and associated spiral ganglion neurons (NC), most of the pre-synaptic C-terminal binding protein 2 (CtBP2)-immunoreactive puncta (small red dots) are located in a “typical,” cytoarchitectural position, located along the basal surface of the cell, below or surrounding the IHC nucleus (large red spheres). A marked shift from this typical CtBP2 basal immunoreactivity pattern to a more apical distribution pattern occurred after exposure to the excitotoxic glutamate analog, kainic acid (KA). […] The ability of HPN-07 to restore the structural integrity of ribbon synapses among IHCs following an excitotoxic trauma in this co-culture model is consistent with HPN-07 acting to promote synaptogenesis (i.e., re-innervation) in this context.
FIG. 6 summarizes a quantitative evaluation from a targeted comparison of the number and spatial distribution of ribbons among IHCs from untreated, BDNF-treated, or HPN-07-treated explants following excitotoxic exposure to KA. […] Each data point represents a composite of approximately ten independent measurements.

noise-damaged chinchilla = experiment: Live animal study in noise-damaged chinchilla; format: in vivo
PC12 cell line [4] = conditions: cited from earlier work

With “2,4-disulfonyl α-phenyl tertiary butyl nitrone [HPN-07]” the “potentiation of BDNF-induced neuritogenesis” value ([1]; BDNF 10 ng/mL + HPN-07 0.1 μM, 48 hours, serum-free medium, FIG. 2) was “potentiated neuritogenesis”, the “neurite outgrowth (number and length of neurites) from SG explants” value ([1]; HPN-07 alone vs untreated controls (NC), FIG. 1) was “induced marked neurite outgrowth” and the “concentration sufficient to induce a neuritogenic response” value ([1]; organotypic cultures of mouse spiral ganglion neurons) was 100 µM. The “number and extent of nerve fibers in addition to BDNF” value ([1]; with BDNF 10 ng/ml, FIG. 24) was “greatly increased the number and extent of nerve fibers”, the NT-3 induced neuritogenesis ([1]; with NT-3 10 ng/ml, FIG. 26) was “enhanced” and the mean neurite lengths (PC12 cell line [2]; 1 μM HPN-07 + 10 ng/mL NGF, 6 days, FIG. 3) was “markedly surpassed the maximum lengths achieved in the saturable NGF dose-escalation series”. For the same molecule, the “NGF-mediated neuritogenesis (mean neurite length)” value (PC12 cell line [2]; 1 μM HPN-07 + 1 and 5 ng/mL NGF, 6 days, FIG. 3) was “enhances”, the “percentage of PC12 cells bearing neurites” value (PC12 cell line [2]; HPN-07 + escalating doses of NGF, FIG. 4) was “significantly enhanced NGF-induced neuritogenesis” and the “neurite length, HPN-07 alone” value (PC12 cell line [2]; low concentrations, no NGF) was “did not increase neurite length”. For the same molecule, the “neurite densities along the base of IHCs” value ([3]; SGN-HC co-cultures following KA) was “increased neurite densities along the base of IHCs”, the “number of total ribbons among IHCs” value ([3]; after KA, compared with BDNF, FIG. 6) was “greater number of total ribbons” and the “KA-induced apical shift of CtBP2 puncta and loss of PSD-95 co-labeling (IHC ribbon synapse integrity)” value ([3]; post-excitotoxic treatment, 10 μM, FIG. 5) was “reversed this pathologic shift”. For the same molecule, the “KA-induced shift of pre-synaptic densities from typical to apical distributions” value ([3]; FIG. 6) was “reversed this pathologic change”, the functional recovery (noise-damaged chinchilla; long after the duration of treatment) was “progressive degree of functional recovery” and the “inner hair cell neurite populations” value (noise-damaged chinchilla; relative to untreated controls) was “significantly greater inner hair cell neurite populations”.

In the case of `CC(C)(C)[N+]([O-])=Cc1ccccc1` [PBN, alpha-phenyl N-tertiary-butyl nitrone], the “concentration required for inducing neuritogenesis in PC12 cells” value (PC12 cell line [4]) is listed as 10 mM.

For NGF: Nerve growth factor, the “concentrations at which the NGF-induced neuritogenic response is saturable” value (PC12 cell line [2]; NGF alone) was ≥ 10 ng/mL and the neurite elongation (PC12 cell line [2]; NGF alone) was “induced neurite elongation in a dose-dependent manner”.

B1: BDNF: Brain-derived neurotrophic factor, the canonical cochlear neuritogenic growth factor (protein, UniProt P23560 19-247, looked up)
Neurotrophic factor BDNF …: APMKEANIRGQGGLAYPGVRTHGTLESVNGPKAGSRGLTSLADTFEHVIEELLDEDQKVRPNEENNKDADLYTSRVMLSSQVPLEPPLLFLLEEYKNYLDAANMSMRVRRHSDPARRGELSVCDSISEWVTAADKKTAVDMSGGTVTVLEKVPVSKGQLKQYFYETKCNPMGYTKEGCRGIDKRHWNSQCRTTQSYVRALTMDSKKRIGWRFIRIDTSCVCTLTIKRGR
With B1 the “neurite outgrowth induced by exogenous neurotrophic factor” value [1] was “induced significant neurite outgrowth” and the “KA-induced shift of pre-synaptic densities from typical to apical distributions” value ([3]; FIG. 6) was “reversed this pathologic change”.

B2: NT-3: inherent neurotrophic factor in the inner ear, essential for development and survival of cochlear spiral ganglions (protein, UniProt P20783 139-257, looked up)
Neurotrophin-3: YAEHKSHRGEYSVCDSESLWVTDKSSAIDIRGHQVTVLGEIKTGNSPVKQYFYETRCKEARPVKNGCRGIDDKHWNSQCKTSQTYVRALTSENNKLVGWRWIRIDTSCVCALSRKIGRT
With B2 the “neurite outgrowth induced by exogenous neurotrophic factor” value [1] was “induced significant neurite outgrowth”.
